What was measured:
[1] = biological target: T1, phospholipase A2 (A. piscivorus piscivorus) (Agkistrodon piscivorus piscivorus, UniProt P51972)
T1 sequence (P51972 1-123): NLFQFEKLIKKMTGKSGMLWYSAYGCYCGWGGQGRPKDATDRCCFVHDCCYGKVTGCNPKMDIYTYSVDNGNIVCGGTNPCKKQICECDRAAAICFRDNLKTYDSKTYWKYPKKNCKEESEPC
Method: HPLC chromatograms illustrating the effect of phospholipase A2 hydrolysis of micelles composed DSPE-PEG750 (0.150 mM). The chromatograms show the amount of stearic acid generated before (solid line) phospholipase A2 (A. piscivorus piscivorus) was added to the micelle suspension and the amount (dashed line) of DSPE-PEG750 after the lag-burst. The dotted line show pure stearic acid (0.4 mM). The percentage hydrolysis was calculated on basis of the integrated area of the stearic acid standard (115850 units) and the integrated area of the sample (45630 units).
The hydrolysis of micelles composed DSPE-PEG750 was followed by analysis of the amount of stearic acid generated. The catalytic reaction was initiated by adding 8.9 μL of a 42 μM PLA2 (150 nM) stock solution to 2.5 ml a thermostated lipid suspension of DSPE-PEG750 (0.150 mM) equilibrated at 45° C. for 600 seconds prior to addition of PLA2. The characteristic burst behavior of PLA2 towards the micelles is signaled by a sudden increase in the intrinsic fluorescence from PLA2 at 340 nm after excitation at 285 nm followed by a concomitant decrease in the 90° light scattering from the lipid suspension (Hønger et al., Biochemistry 35, 9003–9006). Samples for HPLC analysis of the amount of stearic acid generated were taken before adding PLA2 and 100 sec after the observed lag-time.

[2] = biological target: T2, Snake venom PLA2 (Agkistrodon piscivorus piscivorus) (Agkistrodon piscivorus piscivorus, UniProt P51972); experiment: Model system: PLA2-controlled calcein release across D-O-SPC target membrane with DPPC carrier liposomes; format: biochemical
T2 construct: Purified snake venom PLA2 (Agkistrodon piscivorus piscivorus) was a generous gift from dr; R. L. Biltonen; tissue gift from dr; host or cells: snake venom of Agkistrodon piscivorus piscivorus
T2 sequence (P51972 1-123): T1 sequence (P51972 1-123)
Method: The temperature is 37° C. […] The percentage of calcein released is determined as % Release=100 (IF(t)−IB)/(IT−IB), where IF(t) is the measured fluorescence at time t after addition of the enzyme, IB is the background fluorescence, and IT is the total fluorescence measured after addition of Triton X-100 which leads to complete release of calcein by breaking up the target liposomes. […] The concentration of the target and carrier liposomes are 25 μM, and PLA2 is added in a 25 nM concentration in a HEPES buffer with pH=7.5.
The experimental model system consists of a negatively charged liposome carrier and a model target membrane. The carrier is a 100 nm unilamellar liposome made of dipalmitoyl phosphatidylcholine lipids (DPPC) with a small amount (2.5 mol %) of negatively charged lipid of the type dipaimitoyl phosphatidylethanolamine (DPPE)-PEG2000. The target membrane is another liposome made of 1,2-O-dioctadecyl-sn-glycero-phosphatidylcholine (D-O-SPC) which is a phospholipid where the acyl linkages of the stearoyl chains are ether bonds. In contrast to DPPC, D-O-SPC is inert towards PLA2-catalysed hydrolysis thereby mimicking the stability of an intact target cell membrane toward degradation by its own enzymes. […] The permeation of calcein across the D-O-SPC target membrane is subsequently monitored by the increase in fluorescence. […]

[3] = tested on: human red blood cells (RBC); experiment: Hemolysis assay; conditions: low concentrations, 37° C., 20 hours
Method: Briefly, each sample was serially diluted with phosphate buffered saline (PBS), and 0.5 ml of each dilute suspension was mixed with 0.5 ml washed human red blood cells (RBC) [4% in PBS (v/v)]. Sample and standard were placed in a 37° C. incubator and agitated for 20 hours. Tubes were centrifuged at low speed (2000×G) for 10 minutes and 200 μl of the supernatant was quantitated by absorbance at 550 nm. 100 percent hemolysis was defined as the maximum amount of hemolysis obtained from the detergent Triton X-100.
The lipids were hydrated in phosphate buffered saline (PBS). 1-O-octadecyl-2-O-methyl-sn-glycero-3-phosphocholine (ET-18-OCH3) in PBS was included in the assay as a reference.
Briefly, each sample was serially diluted with PBS, and 0.5 ml of each dilute suspension of 1-O-DPPC liposomes were mixed with 0.5 ml washed human red blood cells (RBC) [4% in PBS (v/v)]. For controls, 0.5 ml of the red blood cell suspension was mixed with either 0.5 ml buffer solution (negative hemolysis control) or 0.5 ml water (positive hemolysis control). Samples and standard were placed in a 37° C. incubator and agitated for 20 hours. Tubes were centrifuged at low speed (2000×G) for 10 minutes to form RBCs pellets. 200 μl of the supernatant was quantified by absorbance at 550 nm using a Perkin-Elmer 320 scanning spectrophotometer. […]

[4] = Calcein release across target membrane on adding lyso-phospholipid and fatty acid in the absence of PLA2; conditions: 25 μM target membranes, pH=7.5, 39° C.
Method: FIG. 13. […] The concentration of the target membranes is 25 μM in a HEPES buffer with pH=7.5 at a temperature of 39° C.
The experimental model system consists of a negatively charged liposome carrier and a model target membrane. The carrier is a 100 nm unilamellar liposome made of dipalmitoyl phosphatidylcholine lipids (DPPC) with a small amount (2.5 mol %) of negatively charged lipid of the type dipaimitoyl phosphatidylethanolamine (DPPE)-PEG2000. The target membrane is another liposome made of 1,2-O-dioctadecyl-sn-glycero-phosphatidylcholine (D-O-SPC) which is a phospholipid where the acyl linkages of the stearoyl chains are ether bonds. In contrast to DPPC, D-O-SPC is inert towards PLA2-catalysed hydrolysis thereby mimicking the stability of an intact target cell membrane toward degradation by its own enzymes. This experimental assay, which permits simultaneous as well as separate investigation of the effect of destabilisers at the carrier liposomes and the effect of enhancers at the target membrane, involves entrapment of a water-soluble fluorescent calcein model drug in a self-quenching concentration, in the interior of the non-hydrolysable target liposome, rather than in the carrier liposome. […] The permeation of calcein across the D-O-SPC target membrane is subsequently monitored by the increase in fluorescence. […]

di-octadecanoyl-sn-glycero-3-phosphoethanolamine-N-[methoxy(polyethylene glycol)-750 [DSPE-PEG750]
percent hydrolysis of DSPE-PEG750 ([1]; 0.150 mM DSPE-PEG750, 150 nM PLA2, 45° C.): 100% | lag time ([1]; 45° C., 150 nM PLA2): 10 s

CC(C)CCC[C@@H](C)[C@H]1CC[C@H]2[C@@H]3CC=C4C[C@@H](O)CC[C@]4(C)[C@H]3CC[C@]12C [cholesterol]
effect on extracellular PLA2 activity (in words) ([2]; ≈3 mol % incorporated into liposomes): activates | effect on extracellular PLA2 activity (in words) ([2]; ≈20 mol % incorporated into liposomes, data not shown): deactivated

CCCCCCCCCCCCCCCCCCOC[C@H](COP(=O)([O-])OCC[N+](C)(C)C)OC [ET-18-OCH3]
hemolysis (in words) [3]: significant degree of hemolysis

CCCCCCCCCCCCCCCC(=O)O [fatty acid, palmitic acid]
rate of calcein release across target membrane (in words) [4]: increased rate of calcein release

Source: patent US7166297B2, “Lipid-based drug delivery systems against parasitic infections” (LiPlasome Pharma A/S, priority 2000, dated 2007)
